Data reported in publication PMC4851326, “Pharmacologic Comparison of Clinical Neutral Endopeptidase Inhibitors in a Rat Model of Acute Secretory Diarrhea” (The Journal of Pharmacology and Experimental Therapeutics, 2016).

Experiments:
NEP [1] = molecular target: T1, NEP (Homo sapiens, UniProt P08473); assay: Purified peptidase assay, NEP; format: biochemical
T1 construct: purchased R&D Systems (Minneapolis, MN)
Method: Purified recombinant human enzymes were purchased from R&D Systems (Minneapolis, MN). […] Each substrate was diluted to 100 μM in the assay buffer recommended for each enzyme by the supplier. […] To these, 5 μl of diluted enzyme was added, followed by 10 μl of the quenched peptide substrate. The plates were incubated at 37°C until at least 10% substrate turnover or 5 μM product had formed. Fluorescence was measured using a Tecan Safire II (Excitation 320 nm/Emission 420 nm). Each plate included a standard curve of reaction product and positive (no enzyme) and negative (dimethyl sulfoxide vehicle) controls. Dose-response data were plotted and inhibition values (IC50) determined by linear regression analysis using GraphPad Prism (GraphPad Software, La Jolla, CA).

NEP [2] = molecular target: T2, NEP (Rattus norvegicus, UniProt P07861); assay: NEP enzyme activity in tissues after oral treatment; format: in vivo; conditions: normal rats; for Relative NEP inhibition, duodenum / Relative NEP inhibition, jejunum / Relative NEP inhibition, kidney / Relative NEP inhibition, lung: vs vehicle
T2 construct: NEP enzyme activity was measured in tissue homogenates; from tissue; host or cells: Wistar rat kidney, lung, duodenum, jejunum homogenates
T2 sequence (P07861 1-750): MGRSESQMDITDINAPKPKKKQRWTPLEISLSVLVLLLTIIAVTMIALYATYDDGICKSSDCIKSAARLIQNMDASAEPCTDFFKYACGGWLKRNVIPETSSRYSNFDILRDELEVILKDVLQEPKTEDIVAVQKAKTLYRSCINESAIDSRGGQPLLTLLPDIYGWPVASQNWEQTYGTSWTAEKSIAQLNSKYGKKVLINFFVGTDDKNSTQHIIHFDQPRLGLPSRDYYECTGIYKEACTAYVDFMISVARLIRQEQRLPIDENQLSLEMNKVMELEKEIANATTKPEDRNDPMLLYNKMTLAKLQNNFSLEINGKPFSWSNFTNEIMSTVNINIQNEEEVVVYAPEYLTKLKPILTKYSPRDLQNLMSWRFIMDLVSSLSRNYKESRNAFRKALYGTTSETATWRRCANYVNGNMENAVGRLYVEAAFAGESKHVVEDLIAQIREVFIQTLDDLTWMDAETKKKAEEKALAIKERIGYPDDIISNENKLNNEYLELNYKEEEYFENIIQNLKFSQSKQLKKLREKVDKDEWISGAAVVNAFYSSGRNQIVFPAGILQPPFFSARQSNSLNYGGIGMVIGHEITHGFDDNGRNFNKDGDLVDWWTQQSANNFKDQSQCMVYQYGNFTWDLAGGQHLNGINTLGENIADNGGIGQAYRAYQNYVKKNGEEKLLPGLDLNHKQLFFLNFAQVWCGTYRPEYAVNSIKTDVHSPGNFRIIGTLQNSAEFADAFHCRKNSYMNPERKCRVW
Method: Four or five 2-mm Zirconia beads (Biospec, Bartlesville, OK) were added to fresh weighed tissue specimens (50–250 mg). Assay buffer consisting of 50 mM Tris-HCl (pH 7.4), 200 mM NaCl, and 0.05% TritonX-100 was added (4 μl/mg), and the sample was homogenized for 1 minute using a bead beater (Biospec). Stored frozen homogenates were thawed at room temperature and centrifuged 10 minutes at 18,000g, and the protein concentration was determined for each supernatant. […] NEP substrate 2Abz-dArg-Gly-Leu-C2-Dnp (American Peptide, Sunnyvale, CA) was prepared at 1 mM in 20% acetonitrile/water and diluted to 100 μM in assay buffer, and 10 μl was dispensed to homogenate-containing wells. […] Kinetic data were plotted to determine the rate of product formation by linear regression with interpolation against a standard curve, and the rate was normalized to protein concentration.

intestinal motility = assay: Charcoal meal model of intestinal motility; format: in vivo, rat; conditions: 30 minutes before charcoal meal, distance traveled in 20 minutes
Method: Rats were fasted for 18 hours before the experiment, with free access to water. Animals were weighed, and vehicle or compounds were administered by oral gavage. […] After 30 minutes, each animal received standard charcoal meal (10% suspension of activated charcoal in 5% gum arabic) by oral gavage (5 ml/kg). Animals were given access to food within 1 minute and sacrificed 20 minutes after the charcoal meal. The intestines were carefully removed. Motility was calculated as the measured distance traveled by the charcoal as a percentage of total length from pyloric sphincter to ileocecal junction.

[3] = tested on: castor oil–induced diarrhea; assay: Castor oil–induced diarrhea model; format: in vivo, rat
Method: Experiments were performed with 6-to-7-week-old male Wistar rats obtained from Charles River Laboratories (Wilmington, MA). All animals were housed in Saint Louis University facilities under controlled conditions of temperature, humidity, and a 12-hour light/dark cycle. They were maintained on standard rodent chow with free access to water. Animal care and all procedures were performed in accordance with the National Institutes of Health Guide for the Care and Use of Laboratory Animals and approved by the university’s institutional animal care and use committee.
Animals were weighed and individually housed in metabolic cages containing white paper underneath to collect feces. Test compounds or vehicles were administered by oral gavage (5 ml/kg), and then at indicated times, 10 ml/kg body weight of 100% castor oil was administered by oral gavage to induce diarrhea. Animals had access to food within 5 minutes. Stool weight was recorded starting 15 minutes after castor oil administration and repeated every 15 minutes up to 4 hours. […] After 4 hours, animals were euthanized with CO2, and blood and tissues were collected for analyses.

[4] = 1 h after single oral dose (Race 100, Candox 150, Sac 100, UK 100 mg/kg)
[5] = 5 h after single oral dose (Race 100, Candox 150, Sac 100, UK 100 mg/kg)

T1 sequence (P08473 whole entry): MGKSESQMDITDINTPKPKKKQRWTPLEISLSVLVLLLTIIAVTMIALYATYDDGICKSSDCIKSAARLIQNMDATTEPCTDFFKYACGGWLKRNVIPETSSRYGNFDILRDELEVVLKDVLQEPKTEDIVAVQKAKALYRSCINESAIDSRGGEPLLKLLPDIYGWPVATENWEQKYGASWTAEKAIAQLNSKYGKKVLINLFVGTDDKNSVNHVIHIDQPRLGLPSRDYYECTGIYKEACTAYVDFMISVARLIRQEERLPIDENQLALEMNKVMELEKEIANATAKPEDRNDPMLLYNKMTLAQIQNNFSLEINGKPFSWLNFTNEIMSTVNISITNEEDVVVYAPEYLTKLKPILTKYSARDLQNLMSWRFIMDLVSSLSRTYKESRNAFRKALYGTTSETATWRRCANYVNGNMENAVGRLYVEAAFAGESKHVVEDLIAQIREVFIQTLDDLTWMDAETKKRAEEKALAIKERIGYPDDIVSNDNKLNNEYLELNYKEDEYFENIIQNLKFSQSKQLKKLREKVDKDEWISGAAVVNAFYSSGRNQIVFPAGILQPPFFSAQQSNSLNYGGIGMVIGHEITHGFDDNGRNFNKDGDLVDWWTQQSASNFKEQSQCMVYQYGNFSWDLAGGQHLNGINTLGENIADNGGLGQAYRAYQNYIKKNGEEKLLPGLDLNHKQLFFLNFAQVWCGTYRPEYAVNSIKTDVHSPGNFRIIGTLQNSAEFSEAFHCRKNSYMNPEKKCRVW

COCCOC[C@H](CC1(C(=O)N[C@H]2CC[C@@H](C(=O)O)CC2)CCCC1)C(=O)O [Candoxatrilat, candoxatrilat]
IC50 (NEP [1]; recombinant purified human enzyme, for prodrugs the active form was tested): < 100 nM | NEP selectivity over the other peptidases (NEP [1]; versus panel of ACE, ECE-1, ECE-2, IDE, APN, PSA): > 60 fold

CC(=O)SCC(Cc1ccccc1)C(=O)NCC(=O)OCc1ccccc1 (centres unmarked) [Racecadotril]
Relative NEP inhibition, duodenum (NEP [2]; [4]): 98% | Relative NEP inhibition, jejunum (NEP [2]; [4]): 90% | Relative NEP inhibition, kidney (NEP [2]; [4]): 56% | Relative NEP inhibition, lung (NEP [2]; [4]): 75% | NEP enzyme activity in duodenum and jejunum (NEP [2]; 1 hour after single oral 100 mg/kg dose (Fig. 3A, B)): barely detectable levels | Relative NEP inhibition, duodenum (NEP [2]; [5]): 85% | Relative NEP inhibition, jejunum (NEP [2]; [5]): 32% | Relative NEP inhibition, kidney (NEP [2]; [5]): 39% | Relative NEP inhibition, lung (NEP [2]; [5]): 59% | NEP inhibition in lung and kidney tissue after 24 hours (NEP [2]; 24 hours after single oral 100 mg/kg dose (Fig. 3C, D)): returned to normal | Effect on intestinal transit (charcoal meal test) (intestinal motility; oral, dose not given (Fig. 5)): no effect | Stool output, 150 or 240 minutes predosing ([3]; 100 mg/kg oral 150 or 240 minutes before castor oil (Fig. 4B, 4C)): Neither drug was effective | Incidence of diarrhea ([3]; dose-response study (Fig. 2A), 30 minutes before castor oil, sacubitril at highest tested dose, racecadotril 100 mg/kg): 100% | Cumulative stool output over 4 hours ([3]; single oral dose 30 minutes before castor oil, fasted rats, vs vehicle (Fig. 1)): significantly reduced | Stool output, dose-response studies ([3]; single oral treatment with varying doses (racecadotril 100 mg/kg) 30 minutes before castor oil (Fig. 2A, 2C)): significantly reduced stool output

CCOC(=O)[C@H](C)C[C@@H](Cc1ccc(-c2ccccc2)cc1)NC(=O)CCC(=O)O [Sacubitril, 4-(((2S,4R)-1-([1,1′-biphenyl]-4-yl)-5-ethoxy-4-methyl-5-oxopentan-2-yl)amino)-4-oxobutanoic acid]
Effect on intestinal transit (charcoal meal test) (intestinal motility; 30 mg/kg oral): no effect | Effect on intestinal transit (charcoal meal test) (intestinal motility; 100 mg/kg oral): significant but very modest effect

CN(C)C(=O)C(CCN1CCC(O)(c2ccc(Cl)cc2)CC1)(c1ccccc1)c1ccccc1 [loperamide]
Effect on intestinal transit (charcoal meal test) (intestinal motility; oral, dose not given (Fig. 5)): greatly slowed transit
